Assay [1] deals with mouse bone marrow cells. Put plainly: In vitro mouse bone marrow cell-proliferation-promoting effect (3H-TdR uptake). It is filed as cell-based, mouse (BDF1 female). The conditions noted are these: 4 days. The procedure, abridged: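 Femoral bone marrow monocytes from 6-week female BDF1 mice (Lympholite M fraction, 1×10^6 cells/ml in 10% FCS RPMI 1640) cultured with sample for 4 days at 37 °C, 5% CO2. 3H-TdR (0.5 μCi/well) added for final 6 h; uptake ratio versus vehicle reported as activation rate.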

Assay [2] has as its system lethally irradiated mice. Put plainly: Radioprotective effect: life-span prolongation of lethally irradiated mice. It is filed as in vivo, mouse (BDF1 female). Conditions: 0.1 mg/kg i.v. days 0, 4, 8, 9 Gy X-ray, groups of 10. As for the experimental part:
Life-span-prolonging effects of the present compounds on lethally irradiated mice.
Experiment was performed with BDF1 female mice (6 weeks old) purchased from NIPPON SLC K.K., which were divided into groups consisting of 10 animals. Mice were irradiated generally with 9 Gy of X-ray with an X-ray generating apparatus, Hitachi, MBR-1520R (radiation day: day 0). Samples at a dose of 0.1 mg/kg were administered into tail vein on days 0, 4 and 8 in order to observe the mortality of the animals for 40 days.
In the table, two experiments are separated by the broken line.

In assay [3] the test system is P388 mouse leukemia cells. The assay is described as follows: Life-span-prolonging (anti-tumor) effect on mice subcutaneously inoculated with P388 mouse leukemia cells. It is filed as in vivo, mouse (CDF1 female). Conditions: 0.1 mg/kg i.v. on days 1, 5 and 9; for Survival days ave. ± s. d.: all marked ** (p < 0.01); for T/C (%): survival vs vehicle. The procedure, abridged: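 CDF1 female mice (6 weeks), 5 per group, inoculated subcutaneously with P388 leukemia cells; life-span prolongation assessed. Lentinan and picibanil given intravenously on days 1, 3, 5, 7 and 9 after implantation; sizofilan given subcutaneously on days 1 through 9. Statistics by Mann-Whitney test.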

In assay [4] the test system is B16 mouse melanoma cells. The assay is described as follows: Tumor growth inhibition in mice subcutaneously inoculated with B16 mouse melanoma cells. The format is in vivo, mouse (BDF1 female). The conditions noted are these: 0.1 mg/kg i.v. days 1, 5, 9; maximum during 20 days. As for the experimental part:
ii) Anti-tumor effect of the compound according to the present invention on mice subcutaneously inoculated with B16 mouse melanoma cells.
Experiment was performed with BDF1 female mice (6 weeks) purchased from NIPPON SLC K.K., which were divided into groups consisting of 6 animals. […]. The subcutaneous tumor volumes [(length×width×height)/2] were measured on days 8, 12, 16 and 20 after implantation to determine the tumor growth inhibiting rate (TGIR) of each sample. TGIR was calculated from the following formula: […]
wherein C: tumor volume in the control group, and
T: tumor volume in the sample adminitered groups.
In this connection, Compounds 1-6 and 7-9 were tested in the same time, respectively.

The test system of assay [5] is mouse splenic lymphocyte. Put plainly: In vitro mouse splenic lymphocyte-proliferation-stimulating effect (3H-TdR uptake). The format is cell-based, mouse (BDF1 female). Conditions: 2 days. The procedure, abridged:
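Spleen cells from 6-week-old female BDF1 mice, 2×10^6 cells/ml in 10% FCS RPMI 1640, cultured with vehicle or sample 2 days at 37° C, 5% CO2. ^3H-TdR (0.5 μCi/well) uptake over 6 h by scintillation counting, expressed as % of vehicle.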

In assay [6] the test system is mixed lymphocyte culture reaction (spleen cells of C57BL/6 and BALB/C mice). The assay is described as follows: Mixed lymphocyte culture reaction (MLR). Conditions: 42 hours. The format is cell-based, mouse (C57BL/6 stimulator, BALB/C responder). The procedure, abridged: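 Mouse one-way MLR: mitomycin C-treated (50 μg/ml, 30 min) C57BL/6 spleen cells stimulated BALB/C responder spleen cells, 2×10^6 cells/ml each, cultured 42 h at 37 °C with sample. ³H-thymidine (0.5 μCi/well) incorporation over a further 8 h gave MLR activating rate as % of vehicle uptake.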

As for `CCCCCCCCCCCCCCCCCCCCCC[C@@H](O)C(=O)N[C@@H](CO[C@H]1O[C@H](CO)[C@H](O)[C@H](O[C@H]2O[C@H](CO)[C@H](O)[C@H](O)[C@H]2NC(C)=O)[C@H]1O[C@H]1O[C@H](CO)[C@@H](O)[C@H](O)[C@H]1O)[C@H](O)[C@H](O)CCCCCCCCCCCC(C)C` [Compound 5, O-(N-acetyl-2-amino-2-deoxy-α-D-galactopyranosyl)-(1→3)-O-[α-D-glucopyranosyl-(1→2)]-O-α-D-galactopyranosyl-(1→1)-(2S,3S,4R)-2-amino-N-[(R)-2-hydroxytetracosanoyl]-16-methyl-1,3,4-heptadecanetriol], the “Uptake of 3H-TdR (% of control), bone marrow cells” value in assay [1] (10^-1 μg/ml, 5760 min) is 330 % of control; in assay [1] (10^-2 μg/ml, 5760 min), 283 % of control. The “Number of surviving mice” value in assay [2] (day 10) is 10 mice; in assay [2] (day 15, 0.1 mg/kg), 8 mice; in assay [2] (day 20, 0.1 mg/kg), 7 mice; in assay [2] (day 25, 0.1 mg/kg), 7 mice; in assay [2] (day 30, 0.1 mg/kg), 7 mice; in assay [2] (day 35, 0.1 mg/kg), 7 mice. In addition, the “Number of surviving mice” value in assay [2] (day 40, 0.1 mg/kg) was determined as 7 mice. Further, the “Survival days ave. ± s. d.” value in assay [3] is recorded as 15.2 ± 1.1 days. Also, the “T/C (%)” value in assay [3] turned out to be 119%. In assay [4], the “Maximum tumor growth inhibiting rate, TGIR (%)” value was found to be 86.8%. Moreover, the “Uptake of 3H-TdR (% of control), splenic lymphocytes” value is 889 % of control in assay [5] (10^0 μg/ml, 2880 min); 764 % of control in assay [5] (10^-1 μg/ml, 2880 min); 612 % of control in assay [5] (10^-2 μg/ml, 2880 min); 592 % of control in assay [5] (10^-3 μg/ml, 2880 min). Further, the “MLR activating rate (%)” value in assay [6] (1 × 10^0 μg/ml, 2520 min) was found to be 189%; in assay [6] (1 × 10^-1 μg/ml, 2520 min), 176%.
On to `CCCCCCCCCCCCCCCCCCCCCC[C@@H](O)C(=O)N[C@@H](CO[C@H]1O[C@H](CO)[C@H](O)[C@H](O[C@H]2O[C@H](CO)[C@H](O)[C@H](O)[C@H]2NC(C)=O)[C@H]1O[C@H]1O[C@H](CO)[C@@H](O)[C@H](O)[C@H]1O)[C@H](O)[C@H](O)CCCCCCCCCCCCCC` [Compound 6, O-(N-acetyl-2-amino-2-deoxy-α-D-galactopyranosyl)-(1→3)-O-[α-D-glucopyranosyl-(1→2)]-O-α-D-galactopyranosyl-(1→1)-(2S,3S,4R)-2-amino-N-[(R)-2-hydroxytetracosanoyl]-1,3,4-octadecanetriol], for which the “Uptake of 3H-TdR (% of control), bone marrow cells” value in assay [1] (10^-1 μg/ml, 5760 min) was 431 % of control; in assay [1] (10^-2 μg/ml, 5760 min) it was 142 % of control. Moreover, the “Number of surviving mice” value in assay [2] (day 10, 0.1 mg/kg) is recorded as 10 mice; in assay [2] (day 15, 0.1 mg/kg), 10 mice; in assay [2] (day 20, 0.1 mg/kg) it was 8 mice; in assay [2] (day 25, 0.1 mg/kg), 8 mice; in assay [2] (day 30, 0.1 mg/kg), 8 mice; in assay [2] (day 35, 0.1 mg/kg) it was 8 mice. For the same molecule, the “Number of surviving mice” value in assay [2] (day 40, 0.1 mg/kg) worked out at 8 mice. In addition, the “Survival days ave. ± s. d.” value in assay [3] is 15.8 ± 1.1 days. Moreover, the “T/C (%)” value in assay [3] amounted to 123%. Besides, the “Maximum tumor growth inhibiting rate, TGIR (%)” value in assay [4] is given as 91.2%. Also, the “Uptake of 3H-TdR (% of control), splenic lymphocytes” value in assay [5] (10^0 μg/ml, 2880 min) is given as 883 % of control; in assay [5] (10^-1 μg/ml, 2880 min), 979 % of control; in assay [5] (10^-2 μg/ml, 2880 min) it was 649 % of control; in assay [5] (10^-3 μg/ml, 2880 min), 543 % of control. Also, the “MLR activating rate (%)” value in assay [6] (1 × 10^0 μg/ml, 2520 min) is listed as 228%; in assay [6] (1 × 10^-1 μg/ml, 2520 min), 194%.
For `CCCCCCCCCCCCCCCCCCCCCC[C@@H](O)C(=O)N[C@@H](CO[C@H]1O[C@H](CO)[C@H](O)[C@H](O[C@H]2O[C@H](CO)[C@H](O)[C@H](O)[C@H]2NC(C)=O)[C@H]1O[C@H]1O[C@H](CO)[C@@H](O)[C@H](O)[C@H]1O)[C@H](O)[C@H](O)CCCCCCCCCCCC(C)C` [Compound 7, O-(N-acetyl-2-amino-2-deoxy-α-D-galactopyranosyl)-(1→3)-O-[α-D-glucopyranosyl-(1→2)]-O-α-D-galactopyranosyl-(1→1)-(2S,3S,4R)-2-amino-N-[(R)-2-hydroxytetracosanoyl]-16-methyl-1,3,4-heptadecanetriol], the “Uptake of 3H-TdR (% of control), bone marrow cells” value in assay [1] (10^-1 μg/ml, 5760 min) is 451 % of control; in assay [1] (10^-2 μg/ml, 5760 min), 478 % of control. In addition, the “Number of surviving mice” value in assay [2] (day 10) is reported as 10 mice; in assay [2] (day 15, 0.1 mg/kg), 8 mice; in assay [2] (day 20, 0.1 mg/kg) it was 6 mice; in assay [2] (day 25, 0.1 mg/kg), 3 mice; in assay [2] (day 30, 0.1 mg/kg), 3 mice; in assay [2] (day 35, 0.1 mg/kg), 3 mice. The “Number of surviving mice” value in assay [2] (day 40, 0.1 mg/kg) was 3 mice. The “Survival days ave. ± s. d.” value in assay [3] stood at 15.8 ± 0.9 days. In addition, the “T/C (%)” value in assay [3] is recorded as 123%. Further, the “Maximum tumor growth inhibiting rate, TGIR (%)” value in assay [4] stood at 78.1%. The “Uptake of 3H-TdR (% of control), splenic lymphocytes” value in assay [5] (10^0 μg/ml, 2880 min) was 927 % of control; in assay [5] (10^-2 μg/ml, 2880 min), 705 % of control; in assay [5] (10^-3 μg/ml, 2880 min), 593 % of control. Also, the “MLR activating rate (%)” value in assay [6] (1 × 10^0 μg/ml, 2520 min) worked out at 234%; in assay [6] (1 × 10^-1 μg/ml, 2520 min), 195%.
With “O-(N-acetyl-2-amino-2-deoxy-α-D-galactopyranosyl)-(1→3)-O-[α-D-glucopyranosyl-(1→2)]-O-α-D-galactopyranosyl-(1→1)-(2S,3S,4R)-2-amino-N-[(R)-2-hydroxytetracosanoyl]-16-methyl-1,3,4-octadecanetriol [Compound 9]”, the “Uptake of 3H-TdR (% of control), bone marrow cells” value in assay [1] (10^-1 μg/ml) is listed as 286 % of control; in assay [1] (10^-2 μg/ml) it was 91 % of control. Moreover, the “Number of surviving mice” value in assay [2] (day 10) came to 10 mice; in assay [2] (day 15), 8 mice; in assay [2] (day 20), 5 mice; in assay [2] (day 25) it was 3 mice; in assay [2] (day 30) it was 3 mice; in assay [2] (day 35) it was 3 mice. The “Number of surviving mice” value in assay [2] (day 40) is given as 3 mice. The “Survival days ave. ± s. d.” value in assay [3] worked out at 16.4 ± 1.8 days. Moreover, the “T/C (%)” value in assay [3] is given as 128%. The “Maximum tumor growth inhibiting rate, TGIR (%)” value in assay [4] came out at 74.8%. Further, the “Uptake of 3H-TdR (% of control), splenic lymphocytes” value in assay [5] (10^0 μg/ml) was 902 % of control; in assay [5] (10^-1 μg/ml), 924 % of control; in assay [5] (10^-3 μg/ml), 513 % of control. The figures for the “MLR activating rate (%)” value in assay [6] (1 × 10^0 μg/ml) and in assay [6] (1 × 10^-1 μg/ml) were 247% and 205%, respectively.
